Measured values from paper PMC11012124, “Synthesis of Novel Triazine-Based Chalcones and 8,9-dihydro-7H-pyrimido[4,5-b][1,4]diazepines as Potential Leads in the Search of Anticancer, Antibacterial and Antifungal Agents” (International Journal of Molecular Sciences, 2024).

How the values were obtained:
DU-145 = assay: cells; conditions: Homo sapiens, DU-145, 48 h
UACC-257 = assay: cells; conditions: Homo sapiens, UACC-257, 48 h
SF-295 = assay: cells; conditions: Homo sapiens, SF-295, 48 h
HOP-92 = assay: cells; conditions: Homo sapiens, HOP-92, 48 h
MDA-MB-231/ATCC = assay: cells; conditions: Homo sapiens, MDA-MB-231, 48 h
OVCAR-4 = assay: cells; conditions: Homo sapiens, OVCAR-4, 48 h
786-0 = assay: cells; conditions: Homo sapiens, 786-0, 48 h
TK-10 = assay: cells; conditions: Homo sapiens, TK-10, 48 h
NCI-H226 = assay: cells; conditions: Homo sapiens, NCI-H226, 48 h
NCI-H23 = assay: cells; conditions: Homo sapiens, NCI-H23, 48 h
SK-MEL-5 = assay: cells; conditions: Homo sapiens, SK-MEL-5, 48 h
OVCAR-5 = assay: cells; conditions: Homo sapiens, OVCAR-5, 48 h
T-47D = assay: cells; conditions: Homo sapiens, T47D, 48 h
KM12 = assay: cells; conditions: Homo sapiens, KM12, 48 h
COLO 205 = assay: cells; conditions: Homo sapiens, COLO 205, 48 h
A549/ATCC = assay: cells; conditions: Homo sapiens, A549, 48 h
A498 = assay: cells; conditions: Homo sapiens, A498, 48 h
SK-OV-3 = assay: cells; conditions: Homo sapiens, SK-OV-3, 48 h
MCF7 = assay: cells; conditions: Homo sapiens, MCF7, 48 h
U251 = assay: cells; conditions: Homo sapiens, U-251, 48 h
HCT-15 = assay: cells; conditions: Homo sapiens, HCT-15, 48 h
NCI-H522 = assay: cells; conditions: Homo sapiens, NCI-H522, 48 h
M14 = assay: cells; conditions: Homo sapiens, M14, 48 h
60 cancer cell lines = assay: NCI-60 one-dose screen (10 μM); format: cell-based; conditions: Homo sapiens; one dose of 10 μM, mean over 60 cancer cell lines; read-out: Mean Growth Percent (MGP)
Text: Additionally, the mean of the growth percentages (MGP) of each compound against all the 60 cancer cell lines is also reported, which is used as one of the selection criteria to continue with tests at five concentration doses.

SNB-75 = assay: cells; conditions: Homo sapiens, SNB-75, 48 h
LOX IMVI = assay: cells; conditions: Homo sapiens, 48 h
RPMI-8226 = assay: cells; conditions: Homo sapiens, RPMI-8226, 48 h
MDA-MB-468 = assay: cells; conditions: Homo sapiens, MDA-MB-468, 48 h
MOLT-4 = assay: cells; conditions: Homo sapiens, MOLT-4, 48 h
HCT-116 = assay: cells; conditions: Homo sapiens, HCT-116, 48 h
SK-MEL-2 = assay: cells; conditions: Homo sapiens, SK-MEL-2, 48 h
HT29 = assay: cells; conditions: Homo sapiens, HT-29, 48 h
NCI-H460 = assay: cells; conditions: Homo sapiens, NCI-H460, 48 h
SF-539 = assay: cells; conditions: Homo sapiens, SF-539, 48 h
HL-60(TB) = assay: cells; conditions: Homo sapiens, HL-60, 48 h
SN12C = assay: cells; conditions: Homo sapiens, 48 h
UO-31 = assay: cells; conditions: Homo sapiens, UO-31, 48 h

For COc1ccc(/C=C/C(=O)c2ccc(S(=O)(=O)NCCNc3nc(Nc4ccc(F)cc4)nc(N(C)C)n3)cc2)cc1 [24c], the GI50 (DU-145) was 7.54 µM, the CC50 (DU-145; read-out: LC50) was > 100 µM and the GI50 (UACC-257) was 13.3 µM. For the same compound, the CC50 (UACC-257; read-out: LC50) was > 100 µM, the GI50 (SF-295) was 5.05 µM and the CC50 (SF-295; read-out: LC50) was 62.4 µM. The GI50 (HOP-92) was 3.25 µM, the CC50 (HOP-92; read-out: LC50) was > 100 µM and the GI50 (MDA-MB-231/ATCC) was 2.73 µM. For the same compound, the CC50 (MDA-MB-231/ATCC; read-out: LC50) was 63 µM, the GI50 (OVCAR-4) was 4.12 µM and the CC50 (OVCAR-4; read-out: LC50) was > 100 µM. The GI50 (786-0) was 6.33 µM, the CC50 (786-0; read-out: LC50) was > 100 µM and the GI50 (TK-10) was 8.09 µM. The CC50 (TK-10; read-out: LC50) was > 100 µM, the GI50 (NCI-H226) was 3.8 µM and the CC50 (NCI-H226; read-out: LC50) was > 100 µM. The GI50 (NCI-H23) was 10.4 µM, the CC50 (NCI-H23; read-out: LC50) was > 100 µM and the GI50 (SK-MEL-5) was 3.5 µM. The CC50 (SK-MEL-5; read-out: LC50) was 36.4 µM, the GI50 (OVCAR-5) was 8.43 µM and the CC50 (OVCAR-5; read-out: LC50) was > 100 µM. For the same compound, the GI50 (T-47D) was 3.78 µM, the CC50 (T-47D; read-out: LC50) was > 100 µM and the GI50 (KM12) was 4.01 µM. For the same compound, the CC50 (KM12; read-out: LC50) was 72 µM, the GI50 (COLO 205) was 3.46 µM and the CC50 (COLO 205; read-out: LC50) was 45.7 µM. The GI50 (A549/ATCC) was 6.54 µM, the CC50 (A549/ATCC; read-out: LC50) was > 100 µM and the GI50 (A498) was 10 µM. For the same compound, the CC50 (A498; read-out: LC50) was 87.8 µM, the GI50 (SK-OV-3) was 13.9 µM and the CC50 (SK-OV-3; read-out: LC50) was > 100 µM. For the same compound, the GI50 (MCF7) was 1.93 µM, the CC50 (MCF7; read-out: LC50) was 46.1 µM and the GI50 (U251; U251, 48 h) was 6.7 µM. The CC50 (U251; read-out: LC50) was 55.3 µM, the GI50 (HCT-15) was 2.71 µM and the CC50 (HCT-15; read-out: LC50) was 27.4 µM. The GI50 (NCI-H522) was 2.55 µM, the CC50 (NCI-H522; read-out: LC50) was 67.1 µM and the GI50 (M14) was 4.27 µM. It also gave a CC50 (M14; read-out: LC50) of 99.6 µM, an activity at 10 µM (60 cancer cell lines) of 24.7% and a GI50 (SNB-75) of 3.57 µM. For the same compound, the CC50 (SNB-75; read-out: LC50) was > 100 µM, the GI50 (LOX IMVI) was 3.23 µM and the CC50 (LOX IMVI; read-out: LC50, LOX IMVI, 48 h) was 34 µM. For the same compound, the GI50 (RPMI-8226) was 2.96 µM, the CC50 (RPMI-8226; read-out: LC50) was > 100 µM and the GI50 (MDA-MB-468) was 2.57 µM. The CC50 (MDA-MB-468; read-out: LC50) was 52.6 µM, the GI50 (MOLT-4) was 3.12 µM and the CC50 (MOLT-4; read-out: LC50) was > 100 µM. It also gave a GI50 (HCT-116) of 1.86 µM, a CC50 (HCT-116; read-out: LC50) of 7.07 µM and a GI50 (SK-MEL-2) of 8.1 µM. It also gave a CC50 (SK-MEL-2; read-out: LC50) of 53.4 µM, a GI50 (HT29) of 1.83 µM and a CC50 (HT29; read-out: LC50) of 7.63 µM. The GI50 (NCI-H460) was 4.11 µM, the CC50 (NCI-H460; read-out: LC50) was > 100 µM and the GI50 (SF-539) was 10.3 µM. For the same compound, the CC50 (SF-539; read-out: LC50, SF-539, 48 h) was 51.2 µM, the GI50 (HL-60(TB)) was 3.6 µM and the CC50 (HL-60(TB); read-out: LC50) was > 100 µM. The GI50 (SN12C) was 3.6 µM, the CC50 (SN12C; read-out: LC50) was 44.5 µM and the GI50 (UO-31) was 3.78 µM. The CC50 (UO-31; read-out: LC50) was > 100 µM.
